For the assay, the target named is Complement factor D (Homo sapiens, UniProt P00746). In words: Inhibition Assay: Human Factor D (purified from human serum, Complement Technology, Inc.) at 80 nM final concentration was incubated with test compound at various concentrations for 5 minutes at room temperature in 50 mM Tris, 1M NaCl, pH 7.5. A synthetic substrate Z-L-Lys-SBzl and DTNB (Ellman's reagent) are added to final concentrations of 100 Î¼M each. […] IC50 values are calculated by nonlinear regression of complement Factor D reaction rates as a function of test compound concentration.
Chain of Complement factor D (P00746 whole entry): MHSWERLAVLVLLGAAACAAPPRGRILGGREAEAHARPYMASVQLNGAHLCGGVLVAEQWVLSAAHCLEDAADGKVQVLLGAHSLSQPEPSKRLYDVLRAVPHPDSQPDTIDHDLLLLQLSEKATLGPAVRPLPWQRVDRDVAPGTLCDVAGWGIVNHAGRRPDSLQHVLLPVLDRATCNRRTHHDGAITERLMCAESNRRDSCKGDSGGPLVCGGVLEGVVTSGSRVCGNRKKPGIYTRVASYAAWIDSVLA

The structures appear in SMILES notation.

As a reminder, the IC50 is the concentration that gives 50% inhibition. For the compound `CC(=O)c1nn(CC(=O)N2[C@H](C(=O)N[C@H](C)[C@H]3CC3(Cl)Cl)C[C@@]3(C)C[C@@H]23)c2ccc(-c3cnc(C)nc3)cc12`, the IC50 is below 1000 nM.
